Laboratory results reported in paper PMC7180484 (Molecules, 2020).

Tests used:
BuChE = molecular target: T1, BuChE (Equus caballus, UniProt P81908); assay: biochemical; details: mean ± SD, three replicate determinations
T1 construct: butyrylcholinesterase from equine serum; purchased Sigma Aldrich, India; host or cells: equine serum
From the text: (§1) MAO-B inhibition kit by Biovision. BACE-1 activity assay kit by Sigma Aldrich. […] PC12 (rat pheochromocytoma) cell line was obtained from NCCS, Pune, India. All other reagents used were of analytical grade. All preparations used in tissue culture experiments were filtered through 0.45 µm Axiva 25 mm CA filter. Ethical approval was obtained from GGS Indrapratha University for all the cell culture work done in proper confined facilities.
(§2) Five microliters of enzyme (AChE and BuChE) solution at 0.03 U/mL final assay concentration; 200 μL of phosphate buffer (pH 8); 5 μL of DTNB (0.3 mM); and 5 μL of test compounds were pre-incubated for 15 min at RT. The reaction was initiated by adding 5 μL of substrate (ATChI and BuTChI) at a final concentration of 0.5 mM. The control for relative absorbance consisted of the buffer in place of the test compounds and the enzyme and substrate blank were devoid of enzyme and the substrate, respectively.

AChE = molecular target: T2, AChE (Electrophorus electricus, UniProt O42275); assay: biochemical; details: for SI (selectivity index): AChE selectivity over BuChE, IC50 BuChE/IC50 AChE; for IC50: mean ± SD, three replicate determinations
T2 construct: acetylcholinesterase from electric eel; purchased Sigma Aldrich, India
T2 sequence (O42275 24-633): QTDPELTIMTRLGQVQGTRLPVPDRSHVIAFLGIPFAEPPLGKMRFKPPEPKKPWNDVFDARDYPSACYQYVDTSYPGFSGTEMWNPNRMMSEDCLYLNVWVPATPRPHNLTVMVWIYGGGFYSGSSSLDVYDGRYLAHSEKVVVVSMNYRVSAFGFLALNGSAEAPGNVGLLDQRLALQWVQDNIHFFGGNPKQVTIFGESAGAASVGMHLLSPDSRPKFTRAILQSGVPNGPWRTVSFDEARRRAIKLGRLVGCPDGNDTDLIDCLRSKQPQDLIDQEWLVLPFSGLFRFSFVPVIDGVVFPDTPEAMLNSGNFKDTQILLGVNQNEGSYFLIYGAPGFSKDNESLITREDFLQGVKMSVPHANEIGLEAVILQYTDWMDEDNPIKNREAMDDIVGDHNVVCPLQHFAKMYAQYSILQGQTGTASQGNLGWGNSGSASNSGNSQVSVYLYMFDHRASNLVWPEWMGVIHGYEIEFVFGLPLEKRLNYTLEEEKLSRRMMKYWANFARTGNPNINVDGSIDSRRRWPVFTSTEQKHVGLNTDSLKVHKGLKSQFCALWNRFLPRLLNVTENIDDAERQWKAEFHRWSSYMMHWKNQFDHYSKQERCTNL
From the text: as §1, §2

Aβ42 [1] = molecular target: T3, Aβ42 (Homo sapiens, UniProt P05067); assay: ThT fluorescence assay of Aβ42 fibril formation (anti-aggregation); type: biochemical; design: Aβ42—Amyloid beta 1-42 residues; purchased Link biotech (named in a list that ends 'purchased from Sigma Aldrich, India'); details: vs control (Aβ42 only), 48 h; for inhibition of Aβ42 aggregation (ThT fluorescence): at 44 μM
T3 sequence (P05067 672-713 limits assumed): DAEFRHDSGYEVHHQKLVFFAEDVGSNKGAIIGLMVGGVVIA
Procedure: Aβ42 samples were incubated with or without compounds at different concentrations, after 48 h of fibril formation samples from each experimental set were withdrawn and mixed with ThT in opaque micro titer plate. The reactions were then incubated in dark at 37 °C for 30 min for ThT probe to bind the formed amyloid fibrils. The ThT was excited at 450 nm and spectra were recorded from 400 to 650 nm.

Aβ42 [2] = molecular target: T3, Aβ42; assay: Transmission electron microscopy of Aβ42 aggregates; design: Aβ42—Amyloid beta 1-42 residues; purchased Link biotech (named in a list that ends 'purchased from Sigma Aldrich, India'); details: Aβ42 + 44 μM compound, 37 °C, 48 h; control: abundant long, branched, dense fibrils
Procedure: 5 μL Aβ42 prepared fibril samples (22 μM) Aβ42 alone and Aβ42 with RES and AJM) were loaded on carbon stabilized, formvar coated grid for 40 sec. Ashless filter paper was used to wipe out extra sample from the edges of the grid. Loaded grid was negatively stained with 1% uranyl acetate for 20 sec and air-dried. Grid was then examined and photographed on JEOL 2100F transmission electron microscope.

MAO-B = molecular target: T4, MAO-B (Homo sapiens, UniProt P27338); assay: MAO-B inhibition assay (Biovision fluorometric kit); type: biochemical
T4 construct: purchased Biovision
T4 sequence (P27338 1-520): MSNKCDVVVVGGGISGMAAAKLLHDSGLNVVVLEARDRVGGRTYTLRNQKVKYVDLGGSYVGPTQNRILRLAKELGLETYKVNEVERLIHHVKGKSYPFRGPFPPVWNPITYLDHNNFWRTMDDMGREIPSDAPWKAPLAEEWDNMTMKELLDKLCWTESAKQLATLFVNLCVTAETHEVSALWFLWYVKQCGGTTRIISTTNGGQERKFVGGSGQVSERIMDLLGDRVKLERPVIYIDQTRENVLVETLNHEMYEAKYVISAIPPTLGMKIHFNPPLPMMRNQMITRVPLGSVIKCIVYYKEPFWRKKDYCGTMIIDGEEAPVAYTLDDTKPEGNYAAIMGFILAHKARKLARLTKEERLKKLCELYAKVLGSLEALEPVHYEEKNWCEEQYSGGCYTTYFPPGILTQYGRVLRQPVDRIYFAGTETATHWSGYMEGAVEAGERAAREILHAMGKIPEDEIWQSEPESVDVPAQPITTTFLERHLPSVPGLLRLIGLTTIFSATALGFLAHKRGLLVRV
Procedure: MAO-B (EC 1.4.3.4) activity inhibition was assayed using Biovision inhibition screening kit (fluorometric). With all reaction components at room temperature, 0.2 U enzyme was pre-incubated with compounds under study and incubated for 10 min. Working substrate was prepared fresh by adding developer and oxired probe with assay buffer according to kit instructions. Substrate was added to the reaction and incubated for 10 min; zero-minute fluorescence was recorded (Ex 535 nm, Em 587 nm) to serve as control for relative fluorescence inhibition calculation.

PC12 cells [3] = assay: Aβ42 induced neurotoxicity in PC12 cells (MTT assay); details: 24 h
Procedure: Cells were seeded in 96 well plate in log phase of growth at concentration 5 × 10^5 cells per well. […] MTT solution was added to the wells and incubated in dark, for the live cells to convert the tetrazolium salt in purple formazan crystals. The formazan crystals were dissolved using DMSO and absorbance was measured at 570 nm. Relative survival percentage of PC12 cells was calculated compared to control (PC12 cells only). All measurements were performed in triplicates and all experiments were repeated thrice individually.

Aβ42 [4] = molecular target: T3, Aβ42; assay: Circular dichroism spectroscopy of Aβ42 secondary structure (BeStSel); type: biochemical; design: Aβ42—Amyloid beta 1-42 residues; purchased Link biotech (named in a list that ends 'purchased from Sigma Aldrich, India'); details: for Secondary structure content: Others / Secondary structure content: α-helix / Secondary structure content: Turn / Secondary structure content: β-sheet (parallel) / Secondary structure content: β-sheet (antiparallel): Aβ42 22 μM + compound 22 μM, BeStSel from CD spectra; for Secondary structure content: Others / Secondary structure content: α-helix: Aβ42 control 0.0; for Secondary structure content: Turn: Aβ42 control 8.6; for Secondary structure content: β-sheet (parallel): Aβ42 control 16.5; for Secondary structure content: β-sheet (antiparallel): Aβ42 control 74.9; for inhibition in β-sheet formation: compared to control (Aβ42 only), CD, 48 h incubation
Procedure: Secondary structure of Aβ42 peptides were recorded as far UV circular dichroism spectra using Chirascan (Applied PhotoPhysics, New Delhi, India) instrument and software. 22 μM Aβ42 samples (22 μM Aβ42 alone and Aβ42 with RES and AJM) were mixed well ensuring a homogenous suspension and transferred to quartz cell for CD spectra scanning. CD spectra was recorded from 200–260 nm at RT using a bandwidth of 1.0 nm, times per point 0.5 sec, a step interval of 1 nm, and 10 mm path length. Five scans of each sample were measured and averaged. Averaged control buffer scans were subtracted from the sample spectra. The results of CD measurement were plotted as graph between measured ellipticity (millidegree) and wavelength (nm). The secondary structure contents (α-helix, β-sheet, turn, and random coil) of the Aβ42 peptide samples were estimated from the CD spectra using the CD Pro software. Relative percentage of reduced β-sheet content in Aβ42 samples treated with RES and AJM was calculated using BeStSel software.

Aβ42 [5] = molecular target: T3, Aβ42; assay: Congo red dye binding (red shift) assay with Aβ42 fibrils; details: CR only 490 nm, Aβ42 only 530 nm
Procedure: Aβ42 alone sample was used as control. Samples were incubated at 37 °C at 260 rpm for 48 h in the shaker incubator.
Congo red (200 μM) was dissolved in a 50 mM phosphate buffer (pH 7.4) consisting of 50 mM NaCl and 10% ethanol and filtered through 0.45 µm CA membrane filter. The Aβ42 concentration was fixed at 10 µM in the reaction mixture. […] The absorbance spectra (400–650 nm) of the samples were recorded with a UV-visible spectrophotometer [27]. All experiments had three technological and three biological repeats.

BACE-1 = molecular target: T5, BACE-1 (Homo sapiens, UniProt P56817); assay: In vitro BACE-1 enzyme inhibition assay (FRET kit); type: biochemical
T5 construct: purchased Sigma Aldrich
T5 sequence (P56817 46-501): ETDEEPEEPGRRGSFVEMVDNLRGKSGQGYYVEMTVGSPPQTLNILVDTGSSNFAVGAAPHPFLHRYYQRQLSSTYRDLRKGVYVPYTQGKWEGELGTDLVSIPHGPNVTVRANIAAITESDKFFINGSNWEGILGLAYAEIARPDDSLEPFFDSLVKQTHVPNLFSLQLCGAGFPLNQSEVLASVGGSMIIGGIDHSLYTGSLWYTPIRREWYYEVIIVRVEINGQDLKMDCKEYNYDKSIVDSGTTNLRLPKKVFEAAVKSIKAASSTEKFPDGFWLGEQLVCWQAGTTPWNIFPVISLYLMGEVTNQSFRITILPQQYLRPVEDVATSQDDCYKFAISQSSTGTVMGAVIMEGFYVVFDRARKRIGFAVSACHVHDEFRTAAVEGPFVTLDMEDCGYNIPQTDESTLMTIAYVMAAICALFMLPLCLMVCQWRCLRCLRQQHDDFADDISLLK
Procedure: BACE-1 (EC 3.4.23.46) activity inhibition was assayed using FRET (fluorescence resonance energy transfer) kit (Sigma Aldrich, New Delhi, India). With all reaction components at RT, 50 μM substrate was added to 75 μL assay buffer containing RES and AJM (25, 50, 100 μM) in the microtiter plate. Reaction was initiated by the addition of 0.03 U BACE-1 enzyme in the well and zero minute fluorescence was recorded (Ex 350 nm, Em 405 nm). After 2 h incubation in dark at 37 °C, reaction fluorescence was recorded every one hour for next three hours. Relative fluorescence inhibition was calculated from zero minute fluorescence reading as control. Three individual experiments were performed.

PC12 cells [6] = assay: Neuroprotection against H2O2 induced oxidative stress cytotoxicity in PC12 cells (MTT assay); type: cell-based, rat; details: compound 40 μM; H2O2 200 µM; negative control 31% viability
Procedure: Cell viability was determined through trypan blue dye exclusion assay and cells were seeded to 96 well tissue culture plate at a 5 × 10^5 cells/well concentration. Pre-incubation with compounds were given to PC12 cells prior to inducing H2O2 cytotoxicity for 18 h. MTT was added to the well at 5 mg/mL concentration and incubated in the dark for enzymatic reaction by live cells for 2 h. DMSO was added to well to dissolve formazan crystals and absorbance was recorded at 570 nm. PC12 cells relative survival was calculated compared to control (PC12 cells only).

T1 sequence (P81908 whole entry): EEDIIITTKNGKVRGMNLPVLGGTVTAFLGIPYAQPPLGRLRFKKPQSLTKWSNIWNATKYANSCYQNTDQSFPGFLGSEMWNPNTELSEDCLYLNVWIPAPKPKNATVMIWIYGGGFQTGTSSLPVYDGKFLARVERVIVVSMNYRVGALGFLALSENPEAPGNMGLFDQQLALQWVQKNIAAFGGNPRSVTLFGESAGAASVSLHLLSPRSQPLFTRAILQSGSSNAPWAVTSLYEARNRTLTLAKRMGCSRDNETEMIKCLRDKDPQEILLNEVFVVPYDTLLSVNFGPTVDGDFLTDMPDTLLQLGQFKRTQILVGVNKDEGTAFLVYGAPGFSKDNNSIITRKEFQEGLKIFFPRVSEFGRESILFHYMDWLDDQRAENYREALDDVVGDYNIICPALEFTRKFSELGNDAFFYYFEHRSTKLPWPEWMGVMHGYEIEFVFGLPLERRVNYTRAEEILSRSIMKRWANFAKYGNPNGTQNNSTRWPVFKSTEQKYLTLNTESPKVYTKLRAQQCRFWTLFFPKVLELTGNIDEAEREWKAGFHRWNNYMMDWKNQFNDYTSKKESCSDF

| Compound | IC50 (BuChE) [µM] | SI (selectivity index) (AChE) | IC50 (AChE) [µM] | inhibition of Aβ42 aggregation (ThT fluorescence) (Aβ42 [1]) [%] | morphology of Aβ42 aggregates by TEM (Aβ42 [2]) | Secondary structure content: Others (Aβ42 [4]) [%] | Secondary structure content: α-helix (Aβ42 [4]) [%] | Secondary structure content: Turn (Aβ42 [4]) [%] | Secondary structure content: β-sheet (parallel) (Aβ42 [4]) [%] | Secondary structure content: β-sheet (antiparallel) (Aβ42 [4]) [%] | inhibition in β-sheet formation (Aβ42 [4]) [%] | Congo red absorbance wavelength (red shift) with Aβ42 (Aβ42 [5]; Aβ42 + compound 22 μM) [nm] | Congo red absorbance wavelength (red shift) with Aβ42 (Aβ42 [5]; Aβ42 + compound 44 μM) [nm] | survival of PC12 cells against H2O2 induced oxidative stress (MTT) (PC12 cells [6]) [%] | survival of PC12 cells against Aβ42 cytotoxicity (MTT) (PC12 cells [3]; rat, 40 μM) [%] | further results |
| --- | --- | --- | --- | --- | --- | --- | --- | --- | --- | --- | --- | --- | --- | --- | --- | --- |
| COC(=O)C1=CO[C@@H](C)[C@H]2CN3CCc4c([nH]c5ccccc45)[C@@H]3C[C@H]12 [Ajmalicine] | 5.44 ± 1.75 | 1.55 | 3.5 ± 1.41 | 57 | shorter, loose, and less Aβ42 fibrils along with small oligomers | 53.1 | 0.0 | 11.7 | 0.0 | 35.2 | 53 | 510 | 510 | 89 |  | AChE inhibition (AChE; at 50 μM): 90%; MAO-B inhibition (MAO-B; at 40 μM): 89%; survival of PC12 cells against Aβ42 cytotoxicity (MTT) (PC12 cells [3]; compound 40 μM, Aβ42 fibrils 40 μM): 67%; inhibition of BACE-1 activity (BACE-1; at 50 μM): 69% |
| Tannic acid |  |  |  | 85 |  |  |  |  |  |  |  |  |  |  |  |  |
| COC(=O)[C@H]1[C@H]2C[C@@H]3c4[nH]c5cc(OC)ccc5c4CCN3C[C@H]2C[C@@H](OC(=O)c2cc(OC)c(OC)c(OC)c2)[C@@H]1OC [Reserpine] | 2.8 ± 1.84 | 1.65 | 1.7 ± 2.08 |  | shorter, loose, and less Aβ42 fibrils along with small oligomers | 54.9 | 0.0 | 17.8 | 0.0 | 27.3 | 64 | 510 | 510 | 93 | 92 | inhibition at 50 µM (AChE; read-out: AChE inhibition): 96%; inhibition at 44 µM (Aβ42 [1]): 69%; inhibition at 40 µM (MAO-B): 89%; inhibition at 50 µM (BACE-1): 47% |
| N[C@@H](CCC(=O)N[C@@H](CS)C(=O)NCC(=O)O)C(=O)O [glutathione] |  |  |  |  |  |  |  |  |  |  |  |  |  | 91 |  |  |
| NCCCS(=O)(=O)O [homotaurine] |  |  |  |  |  |  |  |  |  |  |  |  |  |  | 58 |  |
